Results taken from ChEMBL document CHEMBL1240418, “Carbonic anhydrase inhibitors. Regioselective synthesis of novel 1-substituted 1,4-dihydro-4-oxo-3-pyridinesulfonamides and their inhibition of the human cytosolic isozymes I and II and transmembrane cancer-associated isozymes IX and XII” (Eur J Med Chem, 2010).

Biological target: Carbonic anhydrase 9 (Homo sapiens, UniProt Q16790)

Row | Ki | Compound
1 | 7.8 nM | NS(=O)(=O)c1cn(Cc2ccccc2)ccc1=O
2 | 11.9 nM | NS(=O)(=O)c1cn(CC(=O)c2cccc([N+](=O)[O-])c2)ccc1=O
3 | 7.1 nM | Cn1ccc(=O)c(S(N)(=O)=O)c1
4 | 5.8 nM | NS(=O)(=O)c1cn(-c2ccc([N+](=O)[O-])cc2[N+](=O)[O-])ccc1=O
5 | 6.9 nM | NS(=O)(=O)c1cn(-c2ccc([N+](=O)[O-])c3[n-][o+]nc23)ccc1=O
6 | 64 nM | NC(=O)Cn1ccc(=O)c(S(N)(=O)=O)c1
7 | 118 nM | NS(=O)(=O)c1cn(CC(=O)c2ccc3ccccc3c2)ccc1=O
8 | 11.8 nM | NS(=O)(=O)c1cn(CC(=O)c2ccc(Cl)cc2)ccc1=O
9 | 8.6 nM | NS(=O)(=O)c1cn(CC(=O)c2ccc(Cl)c(Cl)c2)ccc1=O
10 | 96 nM | COC(=O)Nc1ccccc1C(=O)n1ccc(=O)c(S(N)(=O)=O)c1
11 | 9.7 nM | NS(=O)(=O)c1cn(CC(=O)c2ccc(F)cc2)ccc1=O
